The assay addresses T1, human α2C receptor (Homo sapiens, UniProt P18825).
T1 construct: expressed in transfected cells; host or cells: CHO cells, also recombinantly expressing chimeric G protein Gαqi3 and mitochondrial obelin (mtOb)
T1 sequence (P18825 1-462): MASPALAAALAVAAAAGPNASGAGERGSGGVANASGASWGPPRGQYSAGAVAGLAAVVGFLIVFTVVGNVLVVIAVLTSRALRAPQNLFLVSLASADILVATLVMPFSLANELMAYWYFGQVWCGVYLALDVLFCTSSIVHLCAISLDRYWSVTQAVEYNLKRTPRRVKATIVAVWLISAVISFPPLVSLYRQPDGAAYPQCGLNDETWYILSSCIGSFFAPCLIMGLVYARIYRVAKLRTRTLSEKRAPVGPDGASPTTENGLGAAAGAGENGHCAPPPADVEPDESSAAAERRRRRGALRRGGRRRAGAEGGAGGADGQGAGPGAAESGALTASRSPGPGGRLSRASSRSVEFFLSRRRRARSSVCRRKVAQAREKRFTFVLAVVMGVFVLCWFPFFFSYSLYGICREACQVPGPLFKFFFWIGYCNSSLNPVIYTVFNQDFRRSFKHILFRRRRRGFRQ
Description: Antagonism against the adrenoreceptor α2C (luminescence, recombinant CHO cell line). It is filed as cell-based. The settings on record: antagonism against adrenoreceptor α2C; noradrenaline 20 nM; tested up to 10 μM; read-out: IC50. An outline of the steps:
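CHO cells expressing human α2C receptor with chimeric Gαqi3 and mitochondrial obelin, loaded with 2.5 μg/ml coelenterazine for one day at 30 °C.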

Counter-ions that a name gives are not always drawn.

With `CC(C)(O)c1ccc(C(=O)N2CCC(N3CCCC(OCC4CC4)C3)CC2)cc1` (single isomer, unassigned; enantiomer 1) [Example 129, [3-(Cyclopropylmethoxy)-1,4′-bipiperidin-1′-yl][4-(2-hydroxypropan-2-yl)phenyl]methanone hydrochloride (enantiomer 1)], the concentration for half-maximal inhibition (IC50) was determined as 16 nM.

Consider `CC1CCCN(C2CCN(C(=O)c3ccc(C(=O)NC(C)(C)c4cc(Cl)cc(Cl)c4)cc3)CC2)C1` (stereo not drawn) [Example 80, N-[2-(3,5-Dichlorophenyl)propan-2-yl]-4-[(3-methyl-1,4′-bipiperidin-1′-yl)carbonyl]benzamide trifluoroacetic acid salt], for which the IC50 came to 150 nM.

For `C[C@@H]1CCCN(C2CCN(C(=O)c3ccc(C(=O)NCc4cccc(OC(F)F)c4)cc3)CC2)C1` [Example 86, (R)—N-[3-(Difluoromethoxy)benzyl]-4-[(3-methyl-1,4′-bipiperidin-1′-yl)carbonyl]benzamide trifluoroacetic acid salt], the IC50 stood at 180 nM.

Consider `CCOC(=O)c1ccc(C(=O)N2CCC(N3CCCC(C(=O)OCC)C3)CC2)cc1` (stereo not drawn) [Example 2, 3-(Ethoxycarbonyl)-1-{1-[4-(ethoxycarbonyl)benzoyl]piperidin-4-yl}piperidine trifluoroacetic acid salt], for which the IC50 amounted to 120 nM.

Consider `CC(C)(O)c1ccc(C(=O)N2CCC(N3CCCC(COC4CC4)C3)CC2)cc1` (stereo not drawn) [Example 118, {3-[(Cyclopropyloxy)methyl]-1,4′-bipiperidin-1′-yl}[4-(2-hydroxypropan-2-yl)phenyl]methanone], for which the IC50 is 8 nM.

In the case of `CCCCN(C)C(=O)c1ccc(C(=O)N2CCC(N3CCCC(C)C3)CC2)cc1` (stereo not drawn) [Example 35, N-Butyl-N-methyl-4-[(3-methyl-1,4′-bipiperidin-1′-yl)carbonyl]benzamide], the IC50 is 124 nM.

As for `CCOC(=O)C1CCCN(C2CCN(C(=O)c3ccc(C4(C)COC4)cc3)CC2)C1` (stereo not drawn) [Example 26, Ethyl 1′-[4-(3-methyloxetan-3-yl)benzoyl]-1,4′-bipiperidine-3-carboxylate], the IC50 was 12 nM.

On to `CC1CCCN(C2CCN(C(=O)c3ccc(C(=O)NCc4cccc(Cl)n4)cc3)CC2)C1` (stereo not drawn) [Example 76, N-[(6-Chloropyridin-2-yl)methyl]-4-[(3-methyl-1,4′-bipiperidin-1′-yl)carbonyl]benzamide trifluoroacetic acid salt], for which the concentration for half-maximal inhibition (IC50) stood at 445 nM.

Turning to `CC(C)(O)c1ccc(C(=O)N2CCC(N3CCCC(COC4CCC4)C3)CC2)cc1` (single isomer, unassigned; enantiomer 2) [Example 117, {3-[(Cyclobutyloxy)methyl]-1,4′-bipiperidin-1′-yl}[4-(2-hydroxypropan-2-yl)phenyl]methanone (enantiomer 2)], the concentration for half-maximal inhibition (IC50) stood at 5 nM.

For `CC1CCCN(C2CCN(C(=O)c3ccc(COc4ccccc4)cc3)CC2)C1` (stereo not drawn) [Example 14, [4-(Phenoxymethyl)phenyl](3-methyl-1,4′-bipiperidin-1′-yl)methanone], the IC50 came to 115 nM.

As for `CC1CCCN(C2CCN(C(=O)c3ccc(C(=O)NC(C)(C)c4ccccc4Cl)cc3)CC2)C1` (stereo not drawn) [Example 78, N-[2-(2-Chlorophenyl)propan-2-yl]-4-[(3-methyl-1,4′-bipiperidin-1′-yl)carbonyl]benzamide trifluoroacetic acid salt], the IC50 is 24 nM.

For the molecule `CC1CCCN(C2CCN(C(=O)c3ccc(C(C)(C)C(=O)NC(C)(C)C)cc3F)CC2)C1` (stereo not drawn) [Example 65, N-tert-Butyl-2-{3-fluoro-4-[(3-methyl-1,4′-bipiperidin-1′-yl)carbonyl]phenyl}-2-methylpropanamide], the 50% inhibitory concentration (IC50) worked out at 134 nM.

In the case of `CC(NC(=O)c1ccc(C(=O)N2CCC(N3CCC[C@@H](C)C3)CC2)cc1)c1c(F)cccc1F` (stereo partly drawn) [Example 87, N-[1-(2,6-Difluorophenyl)ethyl]-4-{[(3R)-3-methyl-1,4′-bipiperidin-1′-yl]carbonyl}benzamide trifluoroacetic acid salt], the IC50 stood at 16 nM.

Take `CCOC(=O)C1CCCN(C2CCN(C(=O)c3ccc(CC4(C)COC4)cc3)CC2)C1` (stereo not drawn) [Example 24, Ethyl 1′-{4-[(3-methyloxetan-3-yl)methyl]benzoyl}-1,4′-bipiperidine-3-carboxylate]: the 50% inhibitory concentration (IC50) stood at 17 nM.

For the molecule `C[C@@H]1CCCN(C2CCN(C(=O)c3ccc(C(=O)NCc4cc(Cl)ccn4)cc3)CC2)C1` [Example 90, N-[(4-Chloropyridin-2-yl)methyl]-4-{[(3R)-3-methyl-1,4′-bipiperidin-1′-yl]carbonyl}benzamide], the IC50 was 28 nM.

In the case of `CCOC(=O)Cc1ccc(C(=O)N2CCC(N3CCCC(C)C3)CC2)cc1` (stereo not drawn) [Example 33, 1-{1-[4-(2-Ethoxy-2-oxoethyl)benzoyl]piperidin-4-yl}-3-methylpiperidine trifluoroacetic acid salt], the IC50 came out at 497 nM.

In the case of `CC(C)(O)c1ccc(C(=O)N2CCC(N3CCCC(OCC4CC4)C3)CC2)cc1` (stereo not drawn) [Example 128, [3-(Cyclopropylmethoxy)-1,4′-bipiperidin-1′-yl][4-(2-hydroxypropan-2-yl)phenyl]methanone], the IC50 stood at 36 nM.

Consider `CCOC(=O)C1CCCN(C2CCN(C(=O)c3ccc(C(C)(C)C)cc3)CC2)C1` (stereo not drawn) [Example 1, Ethyl 1′-[(4-tert-butylphenyl)carbonyl]-1,4′-bipiperidine-3-carboxylate], for which the IC50 is 38 nM.

Regarding `Cc1noc(C)c1NC(=O)c1ccc(C(=O)N2CCC(N3CCCC(C)C3)CC2)cc1` (stereo not drawn) [Example 56, N-(3,5-dimethyl-1,2-oxazol-4-yl)-4-[(3-methyl-1,4′-bipiperidin-1′-yl)carbonyl]benzamide], the IC50 came to 35 nM.

Consider `CC(C)(C)OCC1CCCN(C2CCN(C(=O)c3ccc(C(C)(C)C)cc3)CC2)C1` (stereo not drawn) [Example 107, [3-(tert-Butoxymethyl)-1,4′-bipiperidin-1′-yl](4-tert-butylphenyl)methanone], for which the half-maximal inhibitory concentration (IC50) stood at 90 nM.

With `Cc1cc(C)n(Cc2ccc(C(=O)N3CCC(N4CCCC(C)C4)CC3)cc2)n1` (stereo not drawn) [Example 11, {4-[(3,5-Dimethyl-1H-pyrazol-1-yl)methyl]phenyl}(3-methyl-1,4′-bipiperidin-1′-yl)methanone], the IC50 was 167 nM.

For `CC1CCCN(C2CCN(C(=O)c3ccc(C(=O)NC(CO)Cc4ccc(Cl)cc4)cc3)CC2)C1` (stereo not drawn) [Example 53, N-[1-(4-chlorophenyl)-3-hydroxypropan-2-yl]-4-[(3-methyl-1,4′-bipiperidin-1′-yl)carbonyl]benzamide], the IC50 was 198 nM.

Consider `COCC1CCCN(C2CCN(C(=O)c3ccc(C(C)(C)O)cc3)CC2)C1` (single isomer, unassigned; enantiomer 2) [Example 123], for which the IC50 was determined as 7 nM.

As for `CC(C)(O)c1ccc(C(=O)N2CCC(N3CCCC(OCC4CCC4)C3)CC2)cc1` (stereo not drawn) [Example 111, [3-(Cyclobutylmethoxy)-1,4′-bipiperidin-1-yl][4-(2-hydroxypropan-2-yl)phenyl]methanone], the half-maximal inhibitory concentration (IC50) is 10 nM.

Take `CCOC(=O)C1CCCN(C2CCN(C(=O)c3ccc(C(C)(C)O)cc3)CC2)C1` (stereo not drawn) [Example 9, Ethyl 1′-[4-(2-hydroxypropan-2-yl)benzoyl]-1,4′-bipiperidine-3-carboxylate]: the half-inhibitory concentration (IC50) was 44 nM.

Regarding `CC(C)(O)c1ccc(C(=O)N2CCC(N3CCCC(COC(F)(F)F)C3)CC2)cc1` (stereo not drawn) [Example 110, [4-(2-Hydroxypropan-2-yl)phenyl]{3-[(trifluoromethoxy)methyl]-1,4′-bipiperidin-1′-yl}methanone], the IC50 is 7 nM.

Regarding `CC1CCCN(C2CCN(C(=O)c3ccc(C(C)(C)O)cc3)CC2)C1` (stereo not drawn) [Example 7], the IC50 is 538 nM.

Consider `C[C@@H]1CCCN(C2CCN(C(=O)c3ccc(C(C)(C)O)c(F)c3)CC2)C1` [Example 113, [3-Fluoro-4-(2-hydroxypropan-2-yl)phenyl][(3R)-3-methyl-1,4′-bipiperidin-1′-yl]methanone], for which the 50% inhibitory concentration (IC50) amounted to 33 nM.

As to `CC(NC(=O)c1ccc(C(=O)N2CCC(N3CCC[C@@H](C)C3)CC2)cc1)c1ccncc1` (stereo partly drawn) [Example 93, 4-{[(3R)-3-Methyl-1,4′-bipiperidin-1′-yl]carbonyl}-N-[1-(pyridin-4-yl)ethyl]benzamide], the IC50 was determined as 135 nM.

As to `COCC1CCCN(C2CCN(C(=O)c3ccc(C(C)(C)C)cc3)CC2)C1` (stereo not drawn) [Example 19, (4-tert-Butylphenyl)[3-(methoxymethyl)-1,4′-bipiperidin-1′-yl]methanone], the IC50 is 8 nM.

As for `CC(C)(C)OCC1CCCN(C2CCN(C(=O)c3ccc(C(C)(C)O)cc3)CC2)C1` (stereo not drawn) [Example 106, [3-(tert-Butoxymethyl)-1,4′-bipiperidin-1′-yl][4-(2-hydroxypropan-2-yl)phenyl]methanone], the IC50 came to 35 nM.

Turning to `CC(C)(O)c1ccc(C(=O)N2CCC(N3CCCC(C4CC4)C3)CC2)cc1` (stereo not drawn) [Example 126, (3-Cyclopropyl-1,4′-bipiperidin-1′-yl)[4-(2-hydroxypropan-2-yl)phenyl]methanone], the IC50 was found to be 12 nM.

`CC1CCCN(C2CCN(C(=O)c3ccc(C4(CNC=O)CCC4)cc3)CC2)C1` (stereo not drawn) [Example 66, N-[(1-{4-[(3-Methyl-1,4′-bipiperidin-1′-yl)carbonyl]phenyl}cyclobutyl)methyl]formamide hydrochloride]: the IC50 amounted to 15 nM.

One may read the IC50 as the midpoint of a concentration-inhibition curve.

The values are drawn from patent US20160318866A1, “SUBSTITUTED BIPIPERIDINYL DERIVATIVES” (Bayer Pharma Aktiengesellschaft, priority 2013, published 2016).
